Legend:
Assay type in all cases: physicochemical
[1] = Absorption and fluorescence spectroscopy of CBN ether dimers (odd-even effect); conditions: FIG. 9
Text: A change in number of carbon atoms in the linker with respect to the fluorescence was observed. Absorption and fluorescence spectroscopy was used to evaluate this change with the different dimers and the results are provided in FIGS. 9-10. FIG. 9 is a stacked graph of fluorescence spectroscopy for the odd and even series of dimers of Example 12 (x-axis wavelength in nanometers; y-axis intensity) and FIG. 10 is a stacked graph of the absorption spectroscopy for the same dimers (x-axis wavelength in nanometers; y-axis intensity). […] By changing the number of carbons in linkers, it was observed that when the number of carbon spacer is odd (3C and 5C) the fluorescence is higher compared to the even (2C, 4C and 6C), and a distinct hump at higher wavelengths is observed for odd numbered linkers. This change in the spectra with changing the number of carbons is termed here as the “odd-even effect”.

[2] = Fluorescence viewed under long range UV light of 365 nm; conditions: excitation at 365 nm
Text: In fact, the fluorescence is tied to molecular structure as characterized by ^1H NMR. Phytocannabinoids THC and CBN, are fluorescent, with excitation at 365 nanometer (nm). When fluorescent, the CBN phenolic OH becomes broad meaning that it is in some way connected to the fluorescence of the molecule.

[3] = Fluorescence spectrometer analysis of cannabinoid monomers and adipate dimers
[4] = Stability of CBN observed by NMR
Text: In some embodiments, charge transfer complexes will quench fluorescence, and FRET as it will enhance fluorescence and cause a shift in color. Such adaptations provide, for example, for observation and understanding of a drug as it travels through the body, moves through a cell wall, and binds to a receptor site.

[5] = Fluorescence of CBN-aniline
Method: The synthesis of CBN-aniline was conducted via C—O bond using copper catalyst. The product was characterized by ^1H NMR. […] The CBN-aniline can be formed into dimers by linking through the aniline amine.

[6] = Fluorescence quenching by phenylenediamine isomers in acetone
Method: Experiments were conducted to investigate the fluorescence quenching of cannabinol 2C ether dimer (Example 12) in acetone upon mixing with different isomers of phenylenediamine: ortho-phenylenediamine, meta-phenylenediamine, and para-phenylenediamine. […] This quenching phenomenon can be attributed to the electronic interactions and spatial arrangements of the amino groups in the different phenylenediamine isomers. Both ortho- and para-phenylenediamine have amino groups positioned such that they can effectively engage in electron-donating and resonance interactions with the excited state of cannabinol 2C ether dimer, facilitating non-radiative relaxation pathways such as photoinduced electron transfer (PET).

Row | SMILES | fluorescence (fluorescent or not) [2] | maximum fluorescence, Wavelength (nm) [3] [nm] | further results
1 | CCCCCc1cc(OCCCOc2cc(CCCCC)cc3c2-c2cc(C)ccc2C(C)(C)O3)c2c(c1)OC(C)(C)c1ccc(C)cc1-2 [3C] |  |  | fluorescence, odd carbon spacer compared to the even (2C, 4C and 6C) [1]: higher
2 | CCCCCc1cc(OCCCCCOc2cc(CCCCC)cc3c2-c2cc(C)ccc2C(C)(C)O3)c2c(c1)OC(C)(C)c1ccc(C)cc1-2 [5C] |  |  | fluorescence, odd carbon spacer compared to the even (2C, 4C and 6C) [1]: higher
3 | C=C(C)[C@@H]1CCC(C)=C[C@H]1c1c(O)cc(CCCCC)cc1O [CBD, cannabidiol, reference compound] | lacking in fluorescence |  | 
4 | CCCCCc1cc(O)c(C/C=C(\C)CCC=C(C)C)c(O)c1 [CBG, cannabigerol] | lacking in fluorescence |  | 
5 | CCCCCc1cc(OC(=O)CCCCC(=O)Oc2cc(CCCCC)cc3c2-c2cc(C)ccc2C(C)(C)O3)c2c(c1)OC(C)(C)c1ccc(C)cc1-2 [CBN adipate dimer, DiCannabinol adipate] | fluorescent properties | 418 | fluorescence result compared among the cannabinoids tested ([3]; over THC adipate dimer): most promising results
6 | CCCCCc1cc(O)c2c(c1)OC(C)(C)c1ccc(C)cc1-2 [CBN, cannabinol] | fluorescent | 385 | fluorescence (fluorescent or not) ([2]; listed as Cannabinol (CBN)): fluorescent properties; chemical stability [4]: remains CBN for long durations
7 | CCCCCc1cc(Oc2ccc(N)cc2)c2c(c1)OC(C)(C)c1ccc(C)cc1-2 [CBN-aniline] |  |  | fluorescent properties [5]: exhibited fluorescent properties
8 | CCCCCc1cc(O)c2c(c1)OC(C)(C)[C@@H]1CC=C(C)C[C@@H]21 [D-8 THC] | fluorescent properties | 380 | 
9 | CCCCCc1cc2c(c(O)c1C(=O)O)[C@@H]1C=C(C)CC[C@H]1C(C)(C)O2 [D-9 THCA, Tetrahydrocannabinolic acid] | fluorescent properties |  | 
10 | CCCCCc1cc(O)c2c(c1)OC(C)(C)[C@@H]1CCC(C)=C[C@@H]21 [THC, tetrahydrocannabinol, reference compound] | fluorescent |  | 
11 | CCCCCc1cc(OCCOc2cc(CCCCC)cc3c2-c2cc(C)ccc2C(C)(C)O3)c2c(c1)OC(C)(C)c1ccc(C)cc1-2 [cannabinol 2C ether dimer, Dicannabinolethyleneether dimer] |  |  | fluorescence quenching with meta-phenylenediamine [6]: minimal quenching; fluorescence quenching with ortho-phenylenediamine [6]: significantly quenched; fluorescence quenching with para-phenylenediamine [6]: significantly quenched
12 | CCCCCc1cc(OC(=O)CCCCC(=O)Oc2cc(CCCCC)cc3c2C2CC(C)=CCC2C(C)(C)O3)c2c(c1)OC(C)(C)C1CC=C(C)CC21 (stereo not drawn) [d-8 THC adipate dimer] | fluorescent properties | 384 | 
